Data: US20190008757A1, “DERMATOLOGICAL OR COSMETIC COMPOSITIONS CONTAINING A POLYPHENOL?ENRICHED EXTRACT OF VITEX NEGUNDO” (Laboratoires Expanscience, priority 2016, published 2019)

What was measured:
Prostaglandin E2 (PGE2) = assay: Assay of PGE2 in keratinocytes treated with 10 μg/mL PMA; assay type: cell-based, human; details: 0.1 μM; for PGE2 Mean / PGE2 Increase (%): 24 h pretreatment; for PGE2 Mean: then 10 μg/mL PMA overnight; for PGE2 Increase (%): versus PMA
Description: (§1) Release of the cytokines Interleukin-1 beta (IL1β) and Prostaglandin E2 (PGE2) was analysed. […] Inflammation was then induced by addition of 10 μg/mL PMA overnight. An assay of IL1β and PGE2 was then performed in the cell culture supernatants. In parallel, the number of biologically active cells was determined by a neutral red assay. The amount of cytokine measured for each condition was normalised to the number of living cells determined by the neutral red assay. The significance of the results was verified by a one-factor analysis of variance followed by Tukey's test (GraphPad PRISM software version 5.02, GraphPad Software, San Diego Calif. USA).

[1] = tested on: Interleukin-1 beta (IL1β); assay: Assay of IL1β in keratinocytes treated with 10 μg/mL PMA; assay type: cell-based, human; details: 0.1 μM, 24 h pretreatment; for IL1Beta Mean: then 10 μg/mL PMA overnight; for IL1Beta Increase (%): versus PMA
Description: as §1

[2] = tested on: Normal human keratinocytes; assay: Production of reactive oxygen species (DCFH-DA) in keratinocytes treated with H2O2; assay type: cell-based; details: for ROS Mean: 24 h preincubation and during 100 μM H2O2 20 min, normalised to living cells; for ROS Increase (%): versus 100 μM H2O2; for ROS production following H2O2 treatment (in words): antioxidant references, 10 μM quercetin or 500 μM vitamin C
Description: The antioxidant effect of the polyphenol-enriched extract of Vitex negundo is evaluated using the incorporation of DCFHDA (2′,7′-dichlorofluorescin diacetate) into keratinocytes in culture. This molecule is a nonfluorescent marker in an unoxidised state. Under oxidising conditions (in this case stress induced by hydrogen peroxide, H2O2), DCFHDA will be degraded to DCF, a molecule which will emit fluorescence. […] Normal human keratinocytes were preincubated for 24 hours in the presence of 0.0005%, 0.001% and 0.005% (w/v) concentrations of the polyphenol-enriched extract of Vitex negundo, and 0.016%, 0.03% and 0.16% monopropylene glycol (controls corresponding to the solvent concentrations contained in the concentrations of Vitex negundo extract studied), 10 μM quercetin or 500 μM vitamin C (the latter two molecules serving as antioxidant reference). The cells are then treated for 1 hour in the presence of 0.5 mM DCFH-DA. Oxidation is induced by addition of 100 μM H2O2 for 20 minutes. A second treatment with the tested products is performed simultaneously with H2O2 stress (at the same concentrations as the pretreatment). Lastly, a measurement of fluorescence density (DFU) corresponding to the amount of ROS is performed using a microplate reader. In parallel, the number of biologically active cells was determined by a neutral red assay. The amount of ROS (reactive oxygen species) measured for each condition was normalised to the number of living cells determined by the neutral red assay. The significance of the results was verified by a one-factor analysis of variance followed by Tukey's test (GraphPad PRISM software version 5.02, GraphPad Software, San Diego Calif. USA).

[3] = tested on: human sensory neuron/old keratinocyte cocultures; assay: Neurite length of sensory neurons in neuron/keratinocyte co-cultures; assay type: cell-based; details: 50 ng/mL
Description: Sensory neurons are derived from hiPS cells obtained from human fibroblasts. hiPS cells were cocultured with keratinocytes […]. The co-cultures were treated with the Vitex negundo extract at various concentrations (0.003%, 0.001%, 0.0005%, 0.0001%, 0.00005%, 0.00001% (w/v)), with 0.1% monopropylene glycol (extraction solvent control) and with 50 ng/mL nerve growth factor (NGF) serving as positive reference for dendrite elongation.
After 6 days of co-culture, the cells were fixed with 2% paraformaldehyde solution and then labelled with an anti-β-tubulin antibody. Labelling was observed using a fluorescence microscope and 20 images were acquired per co-culture. The length of the sensory neuron projections was measured and normalised by the number of labelled cell bodies. All statistics were done using the t-test and the ANOVA test (*p<0.05; **p<0.01; ***p<0.001).

Molecule: C[C@@H]1C[C@H]2[C@@H]3CCC4=CC(=O)C=C[C@]4(C)[C@@]3(F)[C@@H](O)C[C@]2(C)[C@@]1(O)C(=O)CO [Dexamethasone, dexamethasone]
- PGE2 Mean (Prostaglandin E2 (PGE2)): 1339.332 (pg/mL)/OD neutral red
- PGE2 Increase (%) (Prostaglandin E2 (PGE2)): −43%
- IL1Beta Mean [1]: 0.120 (pg/mL)/OD neutral red
- IL1Beta Increase (%) [1]: −34%

Molecule: COc1ccc2c(c1)c(CC(=O)O)c(C)n2C(=O)c1ccc(Cl)cc1 [Indometacin, indomethacin]
- PGE2 Mean (Prostaglandin E2 (PGE2)): 416.328 (pg/mL)/OD neutral red
- PGE2 Increase (%) (Prostaglandin E2 (PGE2)): −82%
- release of PGE2 (in words) (Prostaglandin E2 (PGE2); pretreatment for 24 hours): significantly decreased
- IL1Beta Mean [1]: 0.172 (pg/mL)/OD neutral red
- IL1Beta Increase (%) [1]: −5%

Molecule: O=c1c(O)c(-c2ccc(O)c(O)c2)oc2cc(O)cc(O)c12 [quercetin]
- ROS Mean ([2]; 10 μmol/L): 24411 fluorescence units
- ROS Increase (%) ([2]; 10 μmol/L): −82%
- ROS production following H2O2 treatment (in words) [2]: significantly decreased

Molecule: O=C1O[C@H]([C@@H](O)CO)C(O)=C1O [vitamin C]
- ROS Mean ([2]; 500 μM): 11940 fluorescence units
- ROS Increase (%) ([2]; 500 μM): −91%
- ROS production following H2O2 treatment (in words) [2]: significantly decreased

Molecule: NGF: nerve growth factor (NGF) serving as positive reference for dendrite elongation
- total neurite length and neurite length per cell (in words) [3]: significantly increased
- Neurite length per cell ([3]; 6 days of co-culture, control cells 143 ± 16): 212 ± 23 (*) arbitrary units
- Total neurite length ([3]; 6 days of co-culture, control cells 6865 ± 633): 10393 ± 1849 (**) arbitrary units
